{"source": "patent US6100077A", "about": "“Isolation of a gene encoding diacylglycerol acyltransferase” (priority 1998, dated 2000)", "key": {"human ACAT1": {"target": "T1, human ACAT1 (Homo sapiens, UniProt P35610)", "T1 construct": "A cDNA corresponding to the coding region of human ACAT1 flanked by 5 bp of 5' untranslated region and 1 bp of 3' untranslated region; made in house; host or cells: Saccharomyces cerevisiae strain SCY059 (are1 are2 deleted), vector pRS426GP, GAL1/GAL10 promoter; microsomes", "T1 sequence (P35610 1-550)": "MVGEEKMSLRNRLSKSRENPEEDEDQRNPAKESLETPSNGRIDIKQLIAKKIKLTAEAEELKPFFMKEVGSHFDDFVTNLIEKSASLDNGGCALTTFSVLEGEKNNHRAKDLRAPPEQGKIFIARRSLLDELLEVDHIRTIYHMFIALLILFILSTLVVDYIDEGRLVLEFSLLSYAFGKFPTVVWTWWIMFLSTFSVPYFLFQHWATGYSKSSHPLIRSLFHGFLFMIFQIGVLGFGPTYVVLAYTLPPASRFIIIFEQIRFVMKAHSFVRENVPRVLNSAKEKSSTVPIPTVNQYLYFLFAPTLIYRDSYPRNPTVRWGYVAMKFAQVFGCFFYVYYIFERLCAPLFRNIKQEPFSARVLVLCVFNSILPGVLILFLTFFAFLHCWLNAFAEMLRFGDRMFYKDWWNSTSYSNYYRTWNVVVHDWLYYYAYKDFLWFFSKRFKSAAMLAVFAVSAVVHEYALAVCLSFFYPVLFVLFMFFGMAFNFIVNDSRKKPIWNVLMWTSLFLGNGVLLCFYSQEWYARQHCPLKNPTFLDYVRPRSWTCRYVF", "assay": "In vitro assay of ACAT activity in yeast microsomes expressing human ACAT1 (inhibitor sensitivity)", "format": "biochemical", "excerpt": "(§1) In Vitro Assay of ACAT Activity in Yeast Microsomes. The cDNA inserts of the longest ARGP1 and ARGP2 HepG2 library clones were removed by NotI, EcoRI digestion and ligated into the yeast expression vector pRS426GP which utilizes the galactose inducible GAL1/GAL10 promoter. A cDNA corresponding to the coding region of human ACAT1 flanked by 5 bp of 5' untranslated region and 1 bp of 3' untranslated region, in pRS426GP was described previously (27). Yeast strain, SCY059 (MATα, ade2-1, can1-1, trp1-1, ura3-1, his3-11, 15, leu2-3, 112, metl4Δ14HpaI-SalI,are1ΔNA::HIS3, are2Δ::LEU2 ) with deletions in ARE1 and ARE2, the yeast homologs of human ACAT1 (4), was transformed with the above constructs or pRS426GP using lithium acetate and nucleic acid prototrophy selection (28). […] Culturing of the transformed yeast, induction of expression, microsome isolation, and sterol esterification assays were as described previously […]. In those experiments involving diethylpyrocarbonate (DEPC) to modify histidine residues, a preincubation with 100 μM DEPC was performed as described (2).\n(§2) Assay of ACAT activity in ACAT negative yeast transformed with ARGP1 and ARGP2. The ability of ARGP1 and ARGP2 to esterify sterols was assayed in a sterol esterification deficient yeast strain (SCY059) in which the endogenous ARE genes were deleted . […]"}, "ACAT2 (ARGP2)": {"target": "T2, ACAT2 (ARGP2) (Homo sapiens, UniProt O75908)", "T2 construct": "The cDNA inserts of the longest ARGP1 and ARGP2 HepG2 library clones were removed by NotI, EcoRI digestion and ligated into the yeast expression vector; made in house; host or cells: Saccharomyces cerevisiae strain SCY059 (are1 are2 deleted), vector pRS426GP, GAL1/GAL10 promoter; microsomes", "T2 sequence (O75908 1-522)": "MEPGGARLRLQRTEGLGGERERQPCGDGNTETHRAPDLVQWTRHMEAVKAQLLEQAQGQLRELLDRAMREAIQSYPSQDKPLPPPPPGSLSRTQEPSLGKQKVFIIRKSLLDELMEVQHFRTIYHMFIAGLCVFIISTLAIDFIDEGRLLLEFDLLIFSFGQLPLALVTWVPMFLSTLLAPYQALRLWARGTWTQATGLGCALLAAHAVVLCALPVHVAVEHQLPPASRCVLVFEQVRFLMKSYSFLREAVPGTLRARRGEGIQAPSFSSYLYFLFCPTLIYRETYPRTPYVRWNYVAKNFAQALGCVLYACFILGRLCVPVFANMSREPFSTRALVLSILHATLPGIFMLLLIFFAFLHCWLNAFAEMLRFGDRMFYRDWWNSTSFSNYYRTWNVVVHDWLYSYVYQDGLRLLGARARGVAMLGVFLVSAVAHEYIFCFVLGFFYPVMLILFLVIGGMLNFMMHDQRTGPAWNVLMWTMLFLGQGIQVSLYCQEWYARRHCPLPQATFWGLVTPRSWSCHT", "assay": "In vitro assay of ACAT activity in yeast microsomes expressing ARGP2 (ACAT2) (inhibitor sensitivity)", "format": "biochemical", "excerpt": "as §1, §2"}, "[1]": {"system": "incorporation of [14C]-oleate into sterol ester", "assay": "In vitro microsomal ACAT activity of cDNAs expressed in ACAT-negative yeast SCY059", "excerpt": "as §1\nAssay of ACAT activity in ACAT negative yeast transformed with ARGP1 and ARGP2. The ability of ARGP1 and ARGP2 to esterify sterols was assayed in a sterol esterification deficient yeast strain (SCY059) in which the endogenous ARE genes were deleted . Microsomes from these yeast, transformed with an expression vector harboring no insert or cDNA inserts for ARGP1, ARGP2, or human ACAT1 were assayed in vitro for the incorporation of [^14 C]-oleate into sterol ester."}}, "note": "“Also recorded” adds a separate entry of the source. Where two headings read alike, the source gives them in different places."}
{"molecule": "CCOC(=O)OC(=O)OCC", "note": "[DEPC, diethylpyrocarbonate]", "values": [{"measurement": "Degree of Inhibition", "setting": "human ACAT1; 100 μm DEPC, ACAT1", "value": 80, "unit": "%"}, {"measurement": "Active site Modification: Plus DEPC (100 μm) (ACAT activity)", "setting": "human ACAT1; ACAT1 microsomes preincubated with 100 μm DEPC, triplicate", "value": "69 +/- 4"}, {"measurement": "Degree of Inhibition", "setting": "ACAT2 (ARGP2); 100 μm DEPC, ACAT2", "value": 33, "unit": "%"}, {"measurement": "Active site Modification: Plus DEPC (100 μm) (ACAT activity)", "setting": "ACAT2 (ARGP2); ACAT2 microsomes preincubated with 100 μm DEPC, triplicate", "value": "30 +/- 1"}]}
{"molecule": "ACAT1: human acyl Coenzyme A-cholesterol acyltransferase 1 expressed in yeast from cDNA (protein, UniProt P35610 1-550, looked up) Sterol O-acyltransferase 1: MVGEEKMSLRNRLSKSRENPEEDEDQRNPAKESLETPSNGRIDIKQLIAKKIKLTAEAEELKPFFMKEVGSHFDDFVTNLIEKSASLDNGGCALTTFSVLEGEKNNHRAKDLRAPPEQGKIFIARRSLLDELLEVDHIRTIYHMFIALLILFILSTLVVDYIDEGRLVLEFSLLSYAFGKFPTVVWTWWIMFLSTFSVPYFLFQHWATGYSKSSHPLIRSLFHGFLFMIFQIGVLGFGPTYVVLAYTLPPASRFIIIFEQIRFVMKAHSFVRENVPRVLNSAKEKSSTVPIPTVNQYLYFLFAPTLIYRDSYPRNPTVRWGYVAMKFAQVFGCFFYVYYIFERLCAPLFRNIKQEPFSARVLVLCVFNSILPGVLILFLTFFAFLHCWLNAFAEMLRFGDRMFYKDWWNSTSYSNYYRTWNVVVHDWLYYYAYKDFLWFFSKRFKSAAMLAVFAVSAVVHEYALAVCLSFFYPVLFVLFMFFGMAFNFIVNDSRKKPIWNVLMWTSLFLGNGVLLCFYSQEWYARQHCPLKNPTFLDYVRPRSWTCRYVF", "values": [{"measurement": "In Vitro Microsomal ACAT activity (cholesterol ester formation rate)", "setting": "[1]", "value": "340 +/- 76 pmol/minute/μg microsomal prot"}, {"measurement": "Active site Modification: Minus DEPC (ACAT activity)", "setting": "[1]; no DEPC preincubation, representative experiment in triplicate", "value": "340 +/- 16"}]}
{"molecule": "ARGP1: ACAT Related Gene Product 1, 488 amino acid protein (SEQ ID NO:1), proposed diacylglycerol acyltransferase (protein) MGDRGSSRRRRTGSRPSSHGGGGPAAAEEEVRDAAAGPDVGAAGDAPAPAPNKDGDAGVGSGHWELRCHRLQDSLFSSDSGFSNYRGILNWCVVMLILSNARLFLENLIKYGILVDPIQVVSLFLKDPHSWPAPCLVIAANVFAVAAFQVEKRLAVGALTEQAGLLLHVANLATILCFPAAVVLLVESITPVGSLLALMAHTILFLKLFSYRDVNSWCRRARAKAASAGKKASSAAAPHTVSYPDNLTYRDLYYFLFAPTLCYELNFPRSPRIRKRFLLRRILEMLFFTQLQVGLIQQWMVPTIQNSMKPFKDMDYSRIIERLLKLAVPNHLIWLIFFYWLFHSCLNAVAELMQFGDREFYRDWWNSESVTYFWQNWNIPVHKWCIRHFYKPMLRRGSSKWMARTGVFLASAFFHEYLVSVPLRMFRLWAFTGMMAQIPLAWFVGRFFQGNYGNAAVWLSLIIGQPIAVLMYVHDYYVLNYEAPAAEA", "values": [{"measurement": "ACAT activity (sterol esterification), result in words", "setting": "[1]; expressed in yeast", "value": "did not display significant ACAT activity; also recorded: failed to detectably esterify cholesterol or ergosterol"}, {"measurement": "In Vitro Microsomal ACAT activity (cholesterol ester formation rate)", "setting": "[1]; microsomes of transformed yeast SCY059, exogenous cholesterol in Triton WR-1339, three experiments on different preparations", "value": "4 +/- 3 pmol/minute/μg microsomal prot"}]}
